According to paper PMC9862743 (Pharmaceuticals, 2022):
pIC50: −log10 of the molar value. “Also recorded” adds a separate entry of the source.

Key:
EGFR = biological target: T1, EGFR (Homo sapiens, UniProt P00533); experiment: HotSpot in vitro kinase assay, EGFR; assay type: biochemical; settings: for inhibition at 10 µM: single dose 10 µM compound, 10 µM ATP
T1 construct: purchased Reaction Biology Corp

HER2 = biological target: T2, HER2 (Homo sapiens, UniProt P04626); experiment: HotSpot in vitro kinase assay, HER2; assay type: biochemical; settings: single dose 10 µM compound, 10 µM ATP
T2 construct: purchased Reaction Biology Corp

c-MET = biological target: T3, c-MET (Homo sapiens, UniProt P08581); experiment: Kinase selectivity panel, c-MET; assay type: biochemical; settings: single dose 10 µM
T3 construct: purchased Reaction Biology Corp

FGFR1 = biological target: T4, FGFR1 (Homo sapiens, UniProt P11362); experiment: Kinase selectivity panel, FGFR1; assay type: biochemical; settings: single dose 10 µM
T4 construct: purchased Reaction Biology Corp

KDR/VEGFR2 = biological target: T5, KDR/VEGFR2 (Homo sapiens, UniProt P35968); experiment: Kinase selectivity panel, KDR/VEGFR2; assay type: biochemical; settings: single dose 10 µM
T5 construct: purchased Reaction Biology Corp

P38a/MAPK14 = biological target: T6, P38a/MAPK14 (Homo sapiens, UniProt Q16539); experiment: Kinase selectivity panel, P38a/MAPK14; assay type: biochemical; settings: single dose 10 µM
T6 construct: purchased Reaction Biology Corp

CDK2/cyclin A = biological target: T7, CDK2/cyclin A (Homo sapiens, UniProt P24941); experiment: Kinase selectivity panel, CDK2/cyclin A; assay type: biochemical; settings: single dose 10 µM
T7 construct: purchased Reaction Biology Corp

T5 sequence (P35968 20-1356): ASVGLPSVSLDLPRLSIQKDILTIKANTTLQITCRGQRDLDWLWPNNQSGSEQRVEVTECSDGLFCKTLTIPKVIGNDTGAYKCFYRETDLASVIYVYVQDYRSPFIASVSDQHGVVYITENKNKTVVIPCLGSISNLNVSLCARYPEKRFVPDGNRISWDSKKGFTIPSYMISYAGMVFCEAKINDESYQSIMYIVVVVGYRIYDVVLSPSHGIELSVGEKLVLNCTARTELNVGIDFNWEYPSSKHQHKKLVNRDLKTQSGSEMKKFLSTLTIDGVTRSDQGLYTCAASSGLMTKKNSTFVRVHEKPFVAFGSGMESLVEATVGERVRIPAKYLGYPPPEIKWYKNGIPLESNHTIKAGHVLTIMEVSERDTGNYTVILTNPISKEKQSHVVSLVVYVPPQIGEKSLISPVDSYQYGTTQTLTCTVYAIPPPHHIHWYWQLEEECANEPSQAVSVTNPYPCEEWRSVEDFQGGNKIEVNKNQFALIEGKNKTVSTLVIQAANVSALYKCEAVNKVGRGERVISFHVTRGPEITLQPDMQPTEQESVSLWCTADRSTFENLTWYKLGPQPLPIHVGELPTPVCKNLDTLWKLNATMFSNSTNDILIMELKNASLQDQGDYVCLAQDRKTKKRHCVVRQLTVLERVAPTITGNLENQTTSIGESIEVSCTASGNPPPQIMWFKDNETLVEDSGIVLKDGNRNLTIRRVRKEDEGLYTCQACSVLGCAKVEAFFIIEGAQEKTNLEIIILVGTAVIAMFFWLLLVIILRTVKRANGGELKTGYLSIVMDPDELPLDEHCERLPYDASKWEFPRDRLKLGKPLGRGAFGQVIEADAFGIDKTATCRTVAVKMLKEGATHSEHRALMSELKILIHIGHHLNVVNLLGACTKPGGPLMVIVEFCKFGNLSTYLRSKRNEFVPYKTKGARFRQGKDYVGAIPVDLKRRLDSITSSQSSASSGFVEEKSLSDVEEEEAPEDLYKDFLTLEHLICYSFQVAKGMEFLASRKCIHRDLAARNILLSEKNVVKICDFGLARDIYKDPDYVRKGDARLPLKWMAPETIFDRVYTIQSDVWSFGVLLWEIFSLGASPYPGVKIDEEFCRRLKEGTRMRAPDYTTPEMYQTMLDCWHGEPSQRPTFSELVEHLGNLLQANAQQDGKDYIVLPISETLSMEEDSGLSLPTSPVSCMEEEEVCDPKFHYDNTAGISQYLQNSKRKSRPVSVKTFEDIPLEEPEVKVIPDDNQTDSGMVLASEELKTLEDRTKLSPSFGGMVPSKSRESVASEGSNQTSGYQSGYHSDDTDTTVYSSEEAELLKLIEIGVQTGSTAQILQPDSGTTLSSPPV
T4 sequence (P11362 22-822): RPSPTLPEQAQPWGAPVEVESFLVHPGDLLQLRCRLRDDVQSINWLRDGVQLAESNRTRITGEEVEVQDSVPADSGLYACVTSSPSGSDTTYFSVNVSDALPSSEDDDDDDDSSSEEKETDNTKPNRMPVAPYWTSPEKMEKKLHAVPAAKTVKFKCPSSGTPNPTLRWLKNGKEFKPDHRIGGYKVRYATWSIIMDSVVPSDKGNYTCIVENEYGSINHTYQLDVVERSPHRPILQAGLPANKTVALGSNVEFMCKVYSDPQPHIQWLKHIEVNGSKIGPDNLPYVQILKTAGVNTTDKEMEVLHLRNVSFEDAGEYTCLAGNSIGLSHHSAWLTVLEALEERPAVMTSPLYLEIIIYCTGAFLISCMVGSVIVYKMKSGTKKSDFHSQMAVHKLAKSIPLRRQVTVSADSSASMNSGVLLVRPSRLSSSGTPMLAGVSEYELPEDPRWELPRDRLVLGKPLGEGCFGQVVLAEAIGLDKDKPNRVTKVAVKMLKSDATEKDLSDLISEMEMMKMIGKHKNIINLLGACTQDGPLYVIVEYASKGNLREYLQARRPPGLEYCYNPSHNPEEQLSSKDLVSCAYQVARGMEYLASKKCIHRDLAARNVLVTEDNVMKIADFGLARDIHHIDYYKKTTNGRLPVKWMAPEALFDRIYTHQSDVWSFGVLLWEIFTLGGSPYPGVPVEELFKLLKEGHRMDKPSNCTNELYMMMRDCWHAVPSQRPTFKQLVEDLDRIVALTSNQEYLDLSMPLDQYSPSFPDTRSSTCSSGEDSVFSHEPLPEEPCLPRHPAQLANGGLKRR
T6 sequence (Q16539 whole entry): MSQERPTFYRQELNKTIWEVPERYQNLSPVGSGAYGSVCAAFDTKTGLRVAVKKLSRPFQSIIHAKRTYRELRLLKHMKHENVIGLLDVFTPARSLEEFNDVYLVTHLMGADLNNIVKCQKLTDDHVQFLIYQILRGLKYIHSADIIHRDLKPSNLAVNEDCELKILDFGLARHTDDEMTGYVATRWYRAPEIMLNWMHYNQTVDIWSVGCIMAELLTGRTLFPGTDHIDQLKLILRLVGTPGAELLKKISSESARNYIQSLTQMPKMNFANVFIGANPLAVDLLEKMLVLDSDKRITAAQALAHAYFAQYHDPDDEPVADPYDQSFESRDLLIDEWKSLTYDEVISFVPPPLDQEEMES
T2 sequence (P04626 23-1255): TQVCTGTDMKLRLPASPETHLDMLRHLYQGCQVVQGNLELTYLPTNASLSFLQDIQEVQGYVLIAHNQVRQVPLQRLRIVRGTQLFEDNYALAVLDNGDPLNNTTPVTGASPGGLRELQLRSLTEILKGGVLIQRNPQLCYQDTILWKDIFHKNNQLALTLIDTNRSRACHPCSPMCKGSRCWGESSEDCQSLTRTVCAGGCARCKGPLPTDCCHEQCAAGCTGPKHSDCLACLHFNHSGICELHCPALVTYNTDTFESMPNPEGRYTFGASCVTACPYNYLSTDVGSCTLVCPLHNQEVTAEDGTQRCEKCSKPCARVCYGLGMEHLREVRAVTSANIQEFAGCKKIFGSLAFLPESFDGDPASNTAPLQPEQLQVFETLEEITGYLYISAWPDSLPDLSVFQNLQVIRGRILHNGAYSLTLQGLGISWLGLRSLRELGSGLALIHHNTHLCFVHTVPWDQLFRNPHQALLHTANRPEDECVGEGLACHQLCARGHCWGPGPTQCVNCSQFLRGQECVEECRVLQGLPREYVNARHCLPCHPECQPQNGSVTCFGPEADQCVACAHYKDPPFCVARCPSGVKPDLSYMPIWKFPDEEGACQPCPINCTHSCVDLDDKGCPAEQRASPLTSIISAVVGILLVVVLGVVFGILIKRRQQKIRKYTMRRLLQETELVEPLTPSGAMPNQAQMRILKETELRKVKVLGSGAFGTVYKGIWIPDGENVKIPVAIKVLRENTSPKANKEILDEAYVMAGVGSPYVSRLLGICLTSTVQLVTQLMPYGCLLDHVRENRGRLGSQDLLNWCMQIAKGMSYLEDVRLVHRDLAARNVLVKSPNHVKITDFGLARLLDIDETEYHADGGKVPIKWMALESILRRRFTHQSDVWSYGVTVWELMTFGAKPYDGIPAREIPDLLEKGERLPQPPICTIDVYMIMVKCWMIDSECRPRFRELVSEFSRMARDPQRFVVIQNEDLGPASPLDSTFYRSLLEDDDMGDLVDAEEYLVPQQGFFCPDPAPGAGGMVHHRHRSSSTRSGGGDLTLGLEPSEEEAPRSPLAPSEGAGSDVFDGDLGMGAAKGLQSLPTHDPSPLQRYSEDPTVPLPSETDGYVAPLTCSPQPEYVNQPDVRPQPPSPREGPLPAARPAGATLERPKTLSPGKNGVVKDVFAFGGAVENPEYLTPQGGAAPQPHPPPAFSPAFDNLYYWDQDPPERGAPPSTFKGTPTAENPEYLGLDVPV
T1 sequence (P00533 25-1210): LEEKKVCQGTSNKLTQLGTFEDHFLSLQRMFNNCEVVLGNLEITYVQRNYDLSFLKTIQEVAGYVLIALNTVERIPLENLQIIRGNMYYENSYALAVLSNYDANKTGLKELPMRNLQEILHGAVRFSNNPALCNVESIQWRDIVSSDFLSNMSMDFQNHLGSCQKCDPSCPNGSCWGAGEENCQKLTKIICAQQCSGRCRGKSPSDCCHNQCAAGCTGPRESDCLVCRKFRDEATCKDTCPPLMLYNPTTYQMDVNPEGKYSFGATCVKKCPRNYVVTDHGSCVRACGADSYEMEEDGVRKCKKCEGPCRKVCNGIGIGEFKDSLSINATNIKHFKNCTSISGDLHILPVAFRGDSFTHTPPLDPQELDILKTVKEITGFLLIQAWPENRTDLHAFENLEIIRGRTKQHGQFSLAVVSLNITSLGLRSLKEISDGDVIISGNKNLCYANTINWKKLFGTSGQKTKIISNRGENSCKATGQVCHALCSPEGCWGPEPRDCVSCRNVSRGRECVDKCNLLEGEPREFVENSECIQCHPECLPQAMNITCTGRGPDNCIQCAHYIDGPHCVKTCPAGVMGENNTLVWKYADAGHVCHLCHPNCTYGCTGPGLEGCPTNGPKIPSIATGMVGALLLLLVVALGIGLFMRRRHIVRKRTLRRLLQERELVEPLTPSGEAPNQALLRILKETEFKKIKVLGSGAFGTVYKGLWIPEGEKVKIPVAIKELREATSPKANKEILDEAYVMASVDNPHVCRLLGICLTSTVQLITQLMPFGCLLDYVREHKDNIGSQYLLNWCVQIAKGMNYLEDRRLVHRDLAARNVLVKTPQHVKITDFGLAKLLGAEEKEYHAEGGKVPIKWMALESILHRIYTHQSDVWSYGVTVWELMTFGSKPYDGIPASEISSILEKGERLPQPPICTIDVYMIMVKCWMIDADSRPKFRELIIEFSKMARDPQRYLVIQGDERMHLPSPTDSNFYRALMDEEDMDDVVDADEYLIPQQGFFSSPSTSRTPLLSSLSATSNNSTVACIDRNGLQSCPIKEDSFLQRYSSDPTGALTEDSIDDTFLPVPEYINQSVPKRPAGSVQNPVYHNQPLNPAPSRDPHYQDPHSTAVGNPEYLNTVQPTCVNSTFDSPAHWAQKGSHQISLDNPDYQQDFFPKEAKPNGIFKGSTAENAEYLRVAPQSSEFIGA

Row | SMILES | inhibition at 10 µM (EGFR) [%] | inhibition at 10 µM (HER2) [%] | melting point [°C] | further results
1 | COc1cc2ncnc(Nc3ccc4ncccc4c3)c2cc1OCCCCn1ccnc1[N+](=O)[O-] [Compound 6b, 7-Methoxy-6-(4-(2-nitro-1H-imidazol-1-yl)butoxy)-N-(quinolin-6-yl)quinazolin-4-amine] | 99.3 | 78 | 201 to 202 | –
2 | COc1cc2ncnc(Nc3ccc4ncccc4c3)c2cc1OCCCCCCn1ccnc1[N+](=O)[O-] [Compound 6d, 7-Methoxy-6-((6-(2-nitro-1H-imidazol-1-yl)hexyl)oxy)-N-(quinolin-6-yl)quinazolin-4-amine] | 99.1 | 79.7 | 176 to 177 | –
3 | COc1cc2ncnc(Nc3ccc(C#N)cc3)c2cc1OCCCCn1ccnc1[N+](=O)[O-] [Compound 6f, 4-((7-Methoxy-6-(4-(2-nitro-1H-imidazol-1-yl)butoxy)quinazolin-4-yl)amino)benzonitrile] | 76.5 | 11.7 | 200 to 201 | –
4 | COc1cc2ncnc(Nc3ccc(OCc4ccccn4)c(Cl)c3)c2cc1OCCCn1ccnc1[N+](=O)[O-] [Compound 6i, N-(3-Chloro-4-(pyridin-2-ylmethoxy)phenyl)-7-methoxy-6-(3-(2-nitro-1H-imidazol-1-yl)propoxy)quinazolin-4-amine] | 97.7 | 87.2 | 184 to 185 | –
5 | COc1cc2ncnc(Nc3ccc(OCc4ccccn4)c(Cl)c3)c2cc1OCCCCn1ccnc1[N+](=O)[O-] [Compound 6j, N-(3-Chloro-4-(pyridin-2-ylmethoxy)phenyl)-7-methoxy-6-(4-(2-nitro-1H-imidazol-1-yl)butoxy)quinazolin-4-amine] | 99 | 96.7 | – | pIC50 (EGFR; 10-dose assay, 3-fold serial dilution starting at 10 µM): 8.74; fold more potent than lapatinib over EGFR (EGFR; ratio of EGFR IC50 values): 6 fold; fold more potent than staurosporine over EGFR (EGFR; ratio of EGFR IC50 values): 50 fold; % Kinase Inhibition at 10 µM c-MET (c-MET): almost no inhibitory activity; also recorded: poor to weak inhibitory activity; inhibition at 10 µM (c-MET): 19.3%; % Kinase Inhibition at 10 µM FGFR1 (FGFR1): almost no inhibitory activity; also recorded: poor to weak inhibitory activity; inhibition at 10 µM (FGFR1): 13.9%; % Kinase Inhibition at 10 µM KDR/VEGFR2 (KDR/VEGFR2): almost no inhibitory activity; also recorded: poor to weak inhibitory activity; inhibition at 10 µM (KDR/VEGFR2): 10.3%; % Kinase Inhibition at 10 µM P38a/MAPK14 (P38a/MAPK14): almost no inhibitory activity; also recorded: poor to weak inhibitory activity; inhibition at 10 µM (P38a/MAPK14): -33.3%; % Kinase Inhibition at 10 µM CDK2/cyclin A (CDK2/cyclin A): almost no inhibitory activity; also recorded: poor to weak inhibitory activity; inhibition at 10 µM (CDK2/cyclin A): -0.83%
6 | COc1cc2ncnc(Nc3ccc(OCc4ccccn4)c(Cl)c3)c2cc1OCCCCCn1ccnc1[N+](=O)[O-] [Compound 6k, N-(3-Chloro-4-(pyridin-2-ylmethoxy)phenyl)-7-methoxy-6-((5-(2-nitro-1H-imidazol-1-yl)pentyl)oxy)quinazolin-4-amine] | 98.6 | 91.2 | 158 to 159 | –
7 | COc1cc2ncnc(Nc3ccc(OCc4ccccn4)c(Cl)c3)c2cc1OCCCCCCn1ccnc1[N+](=O)[O-] [Compound 6l, N-(3-Chloro-4-(pyridin-2-ylmethoxy)phenyl)-7-methoxy-6-((6-(2-nitro-1H-imidazol-1-yl)hexyl)oxy)quinazolin-4-amine] | 98.6 | 89 | 191 to 192 | –

More lines, main results first:

Row | inhibition at 10 µM (EGFR) [%] | inhibition at 10 µM (HER2) [%] | melting point [°C] | SMILES | further results
8 | 98.8 | 74.7 | 249 to 250 | COc1cc2ncnc(Nc3ccc4ncccc4c3)c2cc1OCCCn1ccnc1[N+](=O)[O-] [Compound 6a, 7-Methoxy-6-(3-(2-nitro-1H-imidazol-1-yl)propoxy)-N-(quinolin-6-yl)quinazolin-4-amine] | –
9 | 99.3 | 90 | 194 to 195 | COc1cc2ncnc(Nc3ccc4ncccc4c3)c2cc1OCCCCCn1ccnc1[N+](=O)[O-] [Compound 6c, 7-Methoxy-6-((5-(2-nitro-1H-imidazol-1-yl)pentyl)oxy)-N-(quinolin-6-yl)quinazolin-4-amine] | –
10 | 67.3 | 8.78 | 245 to 246 | COc1cc2ncnc(Nc3ccc(C#N)cc3)c2cc1OCCCn1ccnc1[N+](=O)[O-] [Compound 6e, 4-((7-Methoxy-6-(3-(2-nitro-1H-imidazol-1-yl)propoxy)quinazolin-4-yl)amino)benzonitrile] | –
11 | 91.8 | 43.1 | 196 to 197 | COc1cc2ncnc(Nc3ccc(C#N)cc3)c2cc1OCCCCCn1ccnc1[N+](=O)[O-] [Compound 6g, 4-((7-Methoxy-6-((5-(2-nitro-1H-imidazol-1-yl)pentyl)oxy)quinazolin-4-yl)amino)benzonitrile] | –
12 | 94.7 | 47.3 | 191 to 192 | COc1cc2ncnc(Nc3ccc(C#N)cc3)c2cc1OCCCCCCn1ccnc1[N+](=O)[O-] [Compound 6h, 4-((7-Methoxy-6-((6-(2-nitro-1H-imidazol-1-yl)hexyl)oxy)quinazolin-4-yl)amino)benzonitrile] | –
